Test results taken from publication PMC11874377, “Fungal-derived methyldeoxaphomins target Plasmodium falciparum segregation through the inhibition of PfActin1” (Proceedings of the National Academy of Sciences of the …, 2025).

Legend:
Dd2 = assay: Stage specific activity assay; type: cell-based, Plasmodium falciparum; conditions: 5 × EC50
Experimental: To corroborate the findings identified through the in vitro evolution of resistance, the activity of NPDG-F was assessed in a stage-dependent manner in vitro. Because actin proteins are needed for chromosome separation, we anticipated that parasites treated with NPDG-F would arrest late in the cell cycle. The parasite strain Dd2 was first synchronized and treated in ring (~6 h post invasion, HPI), trophozoite (~18 HPI), early schizont (~30 HPI), or late schizont (~42 HPI). Cultures were then observed in each condition every 12 h until reinvasion occurred via Giemsa stain and flow cytometry. When added in early ring, NPDG-F treated cultures proceeded normally through the intraerythrocytic life cycle until late schizogony (Fig. 4A). […]
EC50s. […] Dose-response curves were then generated for the available conditions where EC50s could be determined. The fractional inhibitor concentration of both compounds was then determined as described (Fivelman et al., 2004) for the available points and graphed on a scale of 0-1 also using Graphpad Prism version 10.
Cytotoxicity was assessed using an MTS (3-(4,5-Dimethylthiazol-2-yl)-5-(3-carboxymethoxyphenyl)-2-(4-sulfophenyl)-2H-tetrazolium) absorbance assay with human HepG2 hepatoma cells. […] Following a 48-h incubation with compounds, MTS solution was added to wells and absorbance was read after 2-4 h on a Synergy Neo2 multimode reader (BioTek Winsooki, VT). […]

Dd2-Pol δ parent line = assay: Resistant parasite phenotyping and cross resistance, SYBR green I EC50 assay, parent line; type: cell-based, Plasmodium falciparum; conditions: Plasmodium falciparum; strain Dd2-Pol δ -parent; read-out: EC50 (mean ± SEM)
Experimental: Cloning by limiting dilution was then performed to isolate individual lines from the bulk population. Due to the multiple mutations identified in the first biological replicate, we isolated four clones from this bulk culture as compared to two clones each from the second and third replicates. These clones were phenotyped via a SYBR green I-based dose–response assay (Table 2 and Fig. 2B). […] The DNA of these clones was then extracted and subjected to whole-genome sequencing.
Resistant parasite phenotyping and cross resistance measurement
The EC50 assay was performed at 1% parasitemia, 1% hematocrit with SYBR green I in 96-well plates. The highest final concentration of the methyldeoxaphomin NPDG-F was set at 100 μM. Briefly, the compound was subjected to a 3-fold serial dilution with ten dilution points. Three technical replicates were set up at each dilution point. The Dd2-Pol δ parent line and the resistant parasites at 2% hematocrit and 1% parasitemia were added to the drug media at 1:1 ratio. The plate was incubated at 37°C for 72 hours in a chamber filled with a hypoxic gas mixture (3% oxygen, 5% carbon dioxide, and 92% nitrogen). After incubation, the cells were lysis with lysis buffer (20 mM Tris-HCL, 0.08% saponin, 5 mM EDTA, and 0.8% Triton X-100) containing SYBR green I (10,000X, Thermo Fisher, cat # S7563) overnight. Fluorescence was measured at 485nm excitation and 530nm emission using a PHERAstar FSX plate reader (BMG Labtech, Germany). Dose response curves were graphed with Prism 9 Version 9.5.1.
3D structural analysis of the mutations and docking studies
The crystal structure of PfActin1 with accession number 6TU4 (resolution 2.60 Ang) (Vahokoski et al., 2022) was obtained from the Protein Data Bank (PDB). This structure of PfActin1 contains ligands Jasplakinolide and ADP with a coordinating magnesium ion.
Only chain A was used for the docking experiment. […] Schrodinger maestro software (Schrödinger, LLC) was used to build NPDG-F with the proper stereochemistry using the x-ray structure determined for analog NPDG-A (vide supra). […]

For `C=C1C(C)C2C(Cc3ccccc3)NC(=O)C23C(=O)C=CC(O)C(O)C(C)CC(C)CC=CC3C1O` (stereo not drawn) [Methyldeoxaphomin NPDG-F], the “effect when added after 6 HPI” value (Dd2; 18, 30 or 42 HPI) was “persisted only in a minor population of schizonts”, the “effect when added in early ring” value (Dd2; ~6 HPI, synchronous Dd2) was “complete life cycle inhibition” and the EC50 (Dd2-Pol δ parent line) was 3.43 µM.
